Laboratory results from PubChem BioAssay AID330 (DTP/NCI, 2004).
“And” between values parts separate entries of the source, which are not always exact repeats. Equal entries are not always repeated. Toxic doses and inconclusive results are not listed.

Test system: P388 leukemia ip, CD2F1 mice, survival T/C
Experiment: NCI In Vivo Anticancer Drug Screen. Data for tumor model P388 Leukemia (intraperitoneal) in CD2F1 (CDF1) mice
Conditions: endpoint: median survival time, higher = longer survival
Procedure, shortened: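 Mice carrying the transplanted tumor received test compound or vehicle. Survival was recorded in each group, and the value is the treated-group measurement divided by that of the vehicle-treated control group.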

[1] = dose: 100.0 mg/kg/injection, schedule: Q01DX001 (ip), vehicle: Klucel (hydroxypropylcellulose) (HPC)
[2] = dose: 200.0 mg/kg/injection, schedule: Q01DX001 (ip), vehicle: Klucel (hydroxypropylcellulose) (HPC)
[3] = dose: 50.0 mg/kg/injection, schedule: Q01DX009 (ip), vehicle: saline
[4] = dose: 100.0 mg/kg/injection, schedule: Q01DX009 (ip), vehicle: saline
[5] = dose: 25.0 mg/kg/injection, schedule: Q01DX009 (ip), vehicle: saline with Tween-80
[6] = dose: 50.0 mg/kg/injection, schedule: Q01DX009 (ip), vehicle: saline with Tween-80
[7] = dose: 100.0 mg/kg/injection, schedule: Q01DX009 (ip), vehicle: saline with Tween-80
[8] = dose: 200.0 mg/kg/injection, schedule: Q01DX009 (ip), vehicle: saline with Tween-80
[9] = dose: 100.0 mg/kg/injection, schedule: Q04DX002 (ip), vehicle: Klucel (hydroxypropylcellulose) (HPC)
[10] = dose: 200.0 mg/kg/injection, schedule: Q04DX002 (ip), vehicle: Klucel (hydroxypropylcellulose) (HPC)
[11] = dose: 400.0 mg/kg/injection, schedule: Q04DX002 (ip), vehicle: Klucel (hydroxypropylcellulose) (HPC)
[12] = dose: 60.0 mg/kg/injection, schedule: Q01DX005 (ip), vehicle: Klucel (hydroxypropylcellulose) (HPC)
[13] = dose: 120.0 mg/kg/injection, schedule: Q01DX005 (ip), vehicle: Klucel (hydroxypropylcellulose) (HPC)
[14] = dose: 240.0 mg/kg/injection, schedule: Q01DX005 (ip), vehicle: Klucel (hydroxypropylcellulose) (HPC)
[15] = dose: 12.5 mg/kg/injection, schedule: Q01DX009 (ip), vehicle: saline with Tween-80

SMILES: c1cc2c(ncn3nnnc23)[nH]1
- T/C (dose: 6.25 mg/kg/injection, schedule: Q01DX009 (ip), vehicle: water): 91 % of control
- T/C (dose: 12.5 mg/kg/injection, schedule: Q01DX009 (ip), vehicle: water): 107 % of control
- T/C (dose: 25.0 mg/kg/injection, schedule: Q01DX009 (ip), vehicle: water): 108 % of control
- T/C (dose: 50.0 mg/kg/injection, schedule: Q01DX009 (ip), vehicle: water): 109 % of control
- T/C (dose: 100.0 mg/kg/injection, schedule: Q01DX009 (ip), vehicle: water): 118 % of control

SMILES: C=C1C(C(=O)OC)=NNc2c(C(N)=O)ncn21
- T/C (dose: 25.0 mg/kg/injection, schedule: Q01DX001 (ip), vehicle: saline): 101 % of control
- T/C (dose: 50.0 mg/kg/injection, schedule: Q01DX001 (ip), vehicle: saline): 102 % of control
- T/C [1]: 98 % of control
- T/C [2]: 105 % of control
- T/C (dose: 400.0 mg/kg/injection, schedule: Q01DX001 (ip), vehicle: saline): 100 % of control

SMILES: [N-]=[N+]=Nc1ccc2nc(N)nc(N)c2c1
- T/C [1]: 99 % of control
- T/C [2]: 100 % of control

SMILES: Cc1cccc(Oc2ccc(C(F)(F)F)cc2[N+](=O)[O-])c1C
- T/C [3]: 99 % of control
- T/C [4]: 99 % of control

SMILES: O=C1N(c2ccccc2)C(=O)N1c1ccccc1
- T/C [5]: 93 % of control
- T/C [6]: 99 % of control
- T/C [7]: 108 % of control
- T/C [8]: 97 % of control

SMILES: Cc1nn(C(=S)S)c(C)c1N=Nc1ccccc1[N+](=O)[O-]
- T/C [9]: 103 % of control
- T/C [10]: 94 % of control
- T/C [11]: 107 % of control

SMILES: O=C(O)C(Cc1c[nH]c2ccccc12)C(=O)NO (centres undefined)
- T/C (dose: 60.0 mg/kg/injection, schedule: Q01DX005 (ip), vehicle: saline): 97 % of control
- T/C (dose: 120.0 mg/kg/injection, schedule: Q01DX005 (ip), vehicle: saline): 97 % of control
- T/C (dose: 240.0 mg/kg/injection, schedule: Q01DX005 (ip), vehicle: saline): 94 % of control

SMILES: COc1ccc(Cl)c2c1C(=O)C1C(=O)C3C(O)=C(C(=O)NC(C)(C)C)C(=O)C(NC(=O)c4ccccc4)C3CC1C2 (centres undefined)
- T/C [12]: 97 % of control
- T/C [13]: 116 % of control
- T/C [14]: 190 % of control

SMILES: CCOC(=O)C(CCBr)SC (centres undefined)
- T/C [5]: 99 % of control
- T/C [6]: 100 % of control
- T/C [7]: 99 % of control

SMILES: CC1CC2OC(=O)C3=C2C(CCC3)C12CC(c1ccoc1)OC2=O (centres undefined)
- T/C [15]: 91 % of control
- T/C [5]: 91 % of control and 89 % of control
- T/C [6]: 93 % of control

SMILES: O=[Te]=O
- T/C (dose: 3.12 mg/kg/injection, schedule: Q01DX005 (ip), vehicle: saline): 103 % of control
- T/C (dose: 6.25 mg/kg/injection, schedule: Q01DX005 (ip), vehicle: saline): 110 % of control
- T/C (dose: 12.5 mg/kg/injection, schedule: Q01DX005 (ip), vehicle: saline): 105 % of control and 116 % of control

SMILES: O=C1SC(Nc2ccc(Br)cc2)/C(=N\N=C2/C(Nc3ccc(Br)cc3)SC(=O)N2Cc2ccccc2)N1Cc1ccccc1 (centres undefined)
- T/C [9]: 97 % of control
- T/C [10]: 91 % of control
- T/C [11]: 91 % of control

SMILES: CC(=O)N1CCN(C(C)=O)N(C(C)=O)CCN1C(C)=O
- T/C (dose: 100.0 mg/kg/injection, schedule: Q04DX003 (ip), vehicle: suspension in saline): 94 % of control
- T/C (dose: 200.0 mg/kg/injection, schedule: Q04DX003 (ip), vehicle: suspension in saline): 97 % of control
- T/C (dose: 400.0 mg/kg/injection, schedule: Q04DX003 (ip), vehicle: suspension in saline): 94 % of control

SMILES: O=C1N/C(=N\c2nc3ccccc3s2)c2ccccc21
- T/C (dose: 6.25 mg/kg/injection, schedule: Q01DX009 (ip), vehicle: saline with Tween-80): 88 % of control
- T/C [5]: 91 % of control
- T/C [7]: 86 % of control
- T/C [8]: 89 % of control

SMILES: COc1cc(C2Oc3c(OC)cc(/C=C/C(=O)NCCc4ccc(O)cc4)cc3C2C(=O)NCCc2ccc(O)cc2)ccc1O (centres undefined)
- T/C (dose: 1.88 mg/kg/injection, schedule: Q01DX005 (ip), vehicle: Klucel (hydroxypropylcellulose) (HPC)): 96 % of control
- T/C (dose: 3.75 mg/kg/injection, schedule: Q01DX005 (ip), vehicle: Klucel (hydroxypropylcellulose) (HPC)): 94 % of control
- T/C (dose: 7.5 mg/kg/injection, schedule: Q01DX005 (ip), vehicle: Klucel (hydroxypropylcellulose) (HPC)): 99 % of control
- T/C (dose: 15.0 mg/kg/injection, schedule: Q01DX005 (ip), vehicle: Klucel (hydroxypropylcellulose) (HPC)): 101 % of control

SMILES: COC1=CC(=O)C(Cc2ccc(OC)cc2)=CC1=O
- T/C (dose: 2.5 mg/kg/injection, schedule: Q01DX009 (ip), vehicle: saline with Tween-80): 100 % of control
- T/C (dose: 5.0 mg/kg/injection, schedule: Q01DX009 (ip), vehicle: saline with Tween-80): 100 % of control
- T/C (dose: 10.0 mg/kg/injection, schedule: Q01DX009 (ip), vehicle: saline with Tween-80): 100 % of control

SMILES: c1ccc2sc(NC(Nc3nc4ccccc4s3)C34CC5CC(CC(C5)C3)C4)nc2c1
- T/C [15]: 98 % of control
- T/C [5]: 98 % of control
- T/C [6]: 91 % of control and 96 % of control

SMILES: O=c1[nH]nc2c3cccc4cccc(c5ccc(O)c1c52)c43
- T/C [12]: 103 % of control
- T/C [13]: 97 % of control
- T/C [14]: 97 % of control

SMILES: CC(=O)OCc1c(Cl)nc2n1CCS2
- T/C (dose: 25.0 mg/kg/injection, schedule: Q01DX001 (ip), vehicle: Klucel (hydroxypropylcellulose) (HPC)): 103 % of control
- T/C (dose: 50.0 mg/kg/injection, schedule: Q01DX001 (ip), vehicle: Klucel (hydroxypropylcellulose) (HPC)): 96 % of control
- T/C [1]: 102 % of control

SMILES: O=C1CSC(c2c(Cl)cccc2[N+](=O)[O-])N1c1nncs1 (centres undefined)
- T/C (dose: 100.0 mg/kg/injection, schedule: Q04DX002 (ip), vehicle: saline with Tween-80): 87 % of control
- T/C (dose: 200.0 mg/kg/injection, schedule: Q04DX002 (ip), vehicle: saline with Tween-80): 87 % of control
- T/C (dose: 400.0 mg/kg/injection, schedule: Q04DX002 (ip), vehicle: saline with Tween-80): 92 % of control

SMILES: CCOP(=O)(O)SP(=O)(O)OCC.[Zn+2]
- T/C [5]: 109 % of control
- T/C [6]: 103 % of control and 115 % of control

SMILES: CN(C)N=Nc1ccc(N(C)C)cc1
- T/C (dose: 0.39 mg/kg/injection, schedule: Q01DX009 (ip), vehicle: Klucel (hydroxypropylcellulose) (HPC)): 121 % of control
- T/C (dose: 0.78 mg/kg/injection, schedule: Q01DX009 (ip), vehicle: Klucel (hydroxypropylcellulose) (HPC)): 113 % of control and 114 % of control
- T/C (dose: 1.56 mg/kg/injection, schedule: Q01DX009 (ip), vehicle: Klucel (hydroxypropylcellulose) (HPC)): 113 % of control and 120 % of control
- T/C (dose: 3.13 mg/kg/injection, schedule: Q01DX009 (ip), vehicle: Klucel (hydroxypropylcellulose) (HPC)): 103 % of control and 118 % of control

SMILES: CN1C(=O)Cn2c(nn(CCN3CCCC3)c(=O)c2=O)-c2cc(Cl)ccc21
- T/C [3]: 103 % of control
- T/C [4]: 105 % of control
- T/C (dose: 200.0 mg/kg/injection, schedule: Q01DX009 (ip), vehicle: saline): 103 % of control

SMILES: COc1nc(=O)n(C2OC(=O)C(C)(C)C2=O)cc1F (centres undefined)
- T/C (dose: 11.25 mg/kg/injection, schedule: Q04DX002 (ip), vehicle: distilled water + Tween-80): 100 % of control
- T/C (dose: 22.5 mg/kg/injection, schedule: Q04DX002 (ip), vehicle: distilled water + Tween-80): 106 % of control
- T/C (dose: 45.0 mg/kg/injection, schedule: Q04DX002 (ip), vehicle: distilled water + Tween-80): 100 % of control
- T/C (dose: 90.0 mg/kg/injection, schedule: Q04DX002 (ip), vehicle: distilled water + Tween-80): 106 % of control
- T/C (dose: 180.0 mg/kg/injection, schedule: Q04DX002 (ip), vehicle: distilled water + Tween-80): 96 % of control
- T/C (dose: 360.0 mg/kg/injection, schedule: Q04DX002 (ip), vehicle: distilled water + Tween-80): 100 % of control

SMILES: CC(C)(C)N1C(=O)[N+]2(CCCCC2)N=C1[O-]
- T/C (dose: 100.0 mg/kg/injection, schedule: Q04DX003 (ip), vehicle: saline with Tween-80): 93 % of control
- T/C (dose: 200.0 mg/kg/injection, schedule: Q04DX003 (ip), vehicle: saline with Tween-80): 99 % of control
- T/C (dose: 400.0 mg/kg/injection, schedule: Q04DX003 (ip), vehicle: saline with Tween-80): 86 % of control

SMILES: C/C(C(=O)c1ccccc1)=C1/NC(C)(C)CO1
- T/C (dose: 60.0 mg/kg/injection, schedule: Q01DX005 (ip), vehicle: saline with Tween-80): 101 % of control
- T/C (dose: 120.0 mg/kg/injection, schedule: Q01DX005 (ip), vehicle: saline with Tween-80): 103 % of control
- T/C (dose: 240.0 mg/kg/injection, schedule: Q01DX005 (ip), vehicle: saline with Tween-80): 101 % of control

SMILES: Nc1nc(N)c(N=O)c(Nc2ccccc2)n1
- T/C [6]: 97 % of control
- T/C [7]: 99 % of control
- T/C [8]: 96 % of control
